Results: PubChem BioAssay AID256 (DTP/NCI, 2004)
Values joined by “and” are separate entries in the source; they are usually repeats but may differ in a detail not shown here. Equal values may be shown once. Toxic doses and inconclusive results are not listed. How the source made its calls: active means survival T/C of 150% or more; inactive means T/C below 125% in these data.

System: CD2F1 mice, L1210 leukemia ip, survival T/C
Assay: NCI In Vivo Anticancer Drug Screen. Data for tumor model L1210 Leukemia (intraperitoneal) in CD2F1 (CDF1) mice
Conditions: endpoint: mean survival time, higher = longer survival
Procedure, shortened: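 Compound-dosed mice with transplantable tumor versus matched vehicle controls; endpoint ratio T/C reported.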

[1] = dose: 50.0 mg/kg/injection, schedule: Q04DX003 (ip), vehicle: saline with Tween-80
[2] = dose: 100.0 mg/kg/injection, schedule: Q01DX001 (ip), vehicle: saline with Tween-80
[3] = dose: 100.0 mg/kg/injection, schedule: Q04DX003 (ip), vehicle: saline with Tween-80
[4] = dose: 200.0 mg/kg/injection, schedule: Q01DX001 (ip), vehicle: saline with Tween-80
[5] = dose: 100.0 mg/kg/injection, schedule: Q01DX001 (ip), vehicle: saline
[6] = dose: 200.0 mg/kg/injection, schedule: Q01DX001 (ip), vehicle: saline
[7] = dose: 100.0 mg/kg/injection, schedule: Q04DX003 (ip), vehicle: saline
[8] = dose: 200.0 mg/kg/injection, schedule: Q04DX003 (ip), vehicle: saline
[9] = dose: 400.0 mg/kg/injection, schedule: Q04DX003 (ip), vehicle: saline
[10] = dose: 400.0 mg/kg/injection, schedule: Q01DX001 (ip), vehicle: saline
[11] = dose: 25.0 mg/kg/injection, schedule: Q01DX009 (ip), vehicle: saline with Tween-80
[12] = dose: 50.0 mg/kg/injection, schedule: Q01DX009 (ip), vehicle: saline with Tween-80
[13] = dose: 100.0 mg/kg/injection, schedule: Q01DX009 (ip), vehicle: saline with Tween-80
[14] = dose: 50.0 mg/kg/injection, schedule: Q01DX009 (ip), vehicle: Klucel (hydroxypropylcellulose) (HPC)
[15] = dose: 100.0 mg/kg/injection, schedule: Q01DX009 (ip), vehicle: Klucel (hydroxypropylcellulose) (HPC)
[16] = dose: 200.0 mg/kg/injection, schedule: Q01DX009 (ip), vehicle: Klucel (hydroxypropylcellulose) (HPC)
[17] = dose: 25.0 mg/kg/injection, schedule: Q04DX002 (ip), vehicle: saline with Tween-80
[18] = dose: 50.0 mg/kg/injection, schedule: Q04DX002 (ip), vehicle: saline with Tween-80
[19] = dose: 100.0 mg/kg/injection, schedule: Q04DX002 (ip), vehicle: saline with Tween-80
[20] = dose: 100.0 mg/kg/injection, schedule: Q01DX001 (ip), vehicle: carboxymethylcellulose (CMC)
[21] = dose: 200.0 mg/kg/injection, schedule: Q01DX001 (ip), vehicle: carboxymethylcellulose (CMC)
[22] = dose: 400.0 mg/kg/injection, schedule: Q01DX001 (ip), vehicle: carboxymethylcellulose (CMC)
[23] = dose: 200.0 mg/kg/injection, schedule: Q04DX003 (ip), vehicle: saline with Tween-80
[24] = dose: 400.0 mg/kg/injection, schedule: Q04DX003 (ip), vehicle: saline with Tween-80
[25] = dose: 200.0 mg/kg/injection, schedule: Q01DX009 (ip), vehicle: saline with Tween-80
[26] = dose: 200.0 mg/kg/injection, schedule: Q04DX002 (ip), vehicle: saline with Tween-80
[27] = dose: 12.5 mg/kg/injection, schedule: Q01DX009 (ip), vehicle: saline with Tween-80

Measured: T/C

CC1=CCCN(CCc2c[nH]c3ccccc23)C1
inactive: [1] 97 % of control | [2] 90 % of control | [3] 101 % of control | [4] 90 % of control

CS(=O)CN(c1c(Cl)c(Cl)c(NS(=O)(=O)c2ccccc2)c(Cl)c1Cl)S(=O)(=O)c1ccccc1 (stereo not drawn)
inactive: [2] 96 % of control | [4] 92 % of control | dose: 400.0 mg/kg/injection, schedule: Q01DX001 (ip), vehicle: saline with Tween-80 92 % of control

NCC1CC2C=CC1C2 (stereo not drawn)
inactive: [5] 100 % of control | [6] 93 % of control

Cc1ccc(S(=O)(=O)CC(=O)N2CCOCC2)cc1
inactive: [7] 102 % of control | [8] 96 % of control | [9] 98 % of control

O=C(O)c1cc(-c2ccccc2)nc2c1ccc1ccccc12
inactive: [5] 103 % of control | [6] 102 % of control | [10] 97 % of control

O=C(C[n+]1ccccc1/C=N/O)c1ccccc1
inactive: [1] 91 % of control

CCCCCCCCCCCCCCCCOP(=O)(O)OCCCCCCCCCCCCCCCC
inactive: [11] 96 % of control | [12] 102 % of control | [13] 95 % of control

O=C(O)c1ccccc1C(=O)Nc1nccs1
inactive: [14] 97 % of control | [15] 105 % of control | [16] 101 % of control

O=C(O)CCC(=O)NO
inactive: [7] 109 % of control | [8] 109 % of control | [9] 109 % of control

CCCCCCCCCCCCCCCCCCN1C(=O)C2C3CCC(O3)C2C1=O (stereo not drawn)
inactive: [17] 98 % of control | [18] 98 % of control | [19] 94 % of control

CN(C)c1ccc(/C=N/Nc2ncnc(Cl)c2N)cc1
inactive: [20] 98 % of control | [21] 91 % of control | [22] 95 % of control

CC1CCOC1=O (stereo not drawn)
inactive: dose: 50.0 mg/kg/injection, schedule: Q04DX002 (ip), vehicle: saline 98 % of control | dose: 100.0 mg/kg/injection, schedule: Q04DX002 (ip), vehicle: saline 98 % of control | dose: 200.0 mg/kg/injection, schedule: Q04DX002 (ip), vehicle: saline 102 % of control

C1CN(CC2COC(CN3CCOCC3)CO2)CCO1 (stereo not drawn)
inactive: dose: 100.0 mg/kg/injection, schedule: Q01DX009 (ip), vehicle: saline 102 % of control | dose: 200.0 mg/kg/injection, schedule: Q01DX009 (ip), vehicle: saline 102 % of control | dose: 400.0 mg/kg/injection, schedule: Q01DX009 (ip), vehicle: saline 104 % of control

CCOC(=O)C(Cc1ccc(CC(NC(C)=O)(C(=O)OCC)C(=O)OCC)cc1)(NC(C)=O)C(=O)OCC
inactive: dose: 12.5 mg/kg/injection, schedule: Q01DX009 (ip), vehicle: other 96 % of control | dose: 25.0 mg/kg/injection, schedule: Q01DX009 (ip), vehicle: other 94 % of control | dose: 50.0 mg/kg/injection, schedule: Q01DX009 (ip), vehicle: other 97 % of control | dose: 100.0 mg/kg/injection, schedule: Q01DX009 (ip), vehicle: other 91 % of control | dose: 200.0 mg/kg/injection, schedule: Q01DX009 (ip), vehicle: other 92 % of control

Cc1ccc(N)cc1 (tested in a mixture with another compound)
inactive: dose: 12.5 mg/kg/injection, schedule: Q04DX003 (ip), vehicle: saline with Tween-80 97 % of control | dose: 25.0 mg/kg/injection, schedule: Q04DX003 (ip), vehicle: saline with Tween-80 101 % of control and 103 % of control | [1] 107 % of control | [3] 110 % of control and 103 % of control and 107 % of control | [23] 105 % of control and 117 % of control | [24] 102 % of control

COC1OC(CO)C(O)C(O)C1O (stereo not drawn)
inactive: [5] 101 % of control and 105 % of control | [7] 97 % of control | [6] 108 % of control and 105 % of control | [8] 102 % of control | [10] 101 % of control and 105 % of control | [9] 97 % of control

CCCCOC(=O)c1ccc(Cl)c(Cl)c1
inactive: dose: 100.0 mg/kg/injection, schedule: Q04DX003 (ip), vehicle: Klucel (hydroxypropylcellulose) (HPC) 92 % of control | dose: 200.0 mg/kg/injection, schedule: Q04DX003 (ip), vehicle: Klucel (hydroxypropylcellulose) (HPC) 96 % of control | dose: 400.0 mg/kg/injection, schedule: Q04DX003 (ip), vehicle: Klucel (hydroxypropylcellulose) (HPC) 103 % of control

Nc1nc2ncc(CNc3ccc(C(=O)NC(CCC(=O)O)C(=O)O)cn3)nc2c(=O)[nH]1 (stereo not drawn)
inactive: dose: 75.0 mg/kg/injection, schedule: Q01DX001 (ip), vehicle: other 102 % of control

Cc1ccc(S(=O)(=O)N(C)c2ccc(I)cc2F)cc1
inactive: [13] 104 % of control | [25] 95 % of control | dose: 400.0 mg/kg/injection, schedule: Q01DX009 (ip), vehicle: saline with Tween-80 101 % of control

Cc1cc(C(O)c2ccccn2)c2cc(Cl)cc(Cl)c2n1 (stereo not drawn)
inactive: [19] 97 % of control | [26] 102 % of control | dose: 400.0 mg/kg/injection, schedule: Q04DX002 (ip), vehicle: saline with Tween-80 97 % of control

Nc1ccc(CCCCNC(=O)c2ccccc2)cc1
inactive: [3] 93 % of control | [23] 96 % of control | [24] 90 % of control

CS(=O)(=O)OC1CCCCC1c1ccccc1 (stereo not drawn)
inactive: [20] 103 % of control | [21] 103 % of control | [22] 101 % of control

Cc1cc(NC(=O)NCc2ccc(N3C(N)=NC(N)=NC3(C)C)cc2)ccc1S(=O)(=O)F
inactive: [27] 101 % of control | [11] 106 % of control | [12] 104 % of control | [13] 123 % of control

CC(=O)Nc1ccc(C(=O)O)cc1
inactive: [3] 96 % of control | [23] 98 % of control | [24] 100 % of control

Nc1cn[nH]c(=O)c1
inactive: [20] 102 % of control | [21] 100 % of control | [22] 92 % of control

O=[N+]([O-])c1ccccc1-c1n[nH]c2ccccc12
inactive: [17] 113 % of control | [18] 106 % of control | [19] 106 % of control | [26] 110 % of control

CCC[CH2][Sn]1([CH2]CCC)[O]C2C(CO)OC(n3ccc4c(N)ncnc43)C2[O]1 (stereo not drawn)
inactive: dose: 0.39 mg/kg/injection, schedule: Q01DX005 (ip), vehicle: water 97 % of control | dose: 0.78 mg/kg/injection, schedule: Q01DX005 (ip), vehicle: water 103 % of control | dose: 1.56 mg/kg/injection, schedule: Q01DX005 (ip), vehicle: other 111 % of control | dose: 1.56 mg/kg/injection, schedule: Q01DX005 (ip), vehicle: water 90 % of control | dose: 3.13 mg/kg/injection, schedule: Q01DX005 (ip), vehicle: other 95 % of control | dose: 3.13 mg/kg/injection, schedule: Q01DX005 (ip), vehicle: water 106 % of control

O=Cc1cccc(OCc2ccc([N+](=O)[O-])cc2)c1
inactive: [14] 105 % of control | [15] 108 % of control | [16] 97 % of control

c1ccc(-c2cc(-c3ccccc3)[o+]c(-c3ccccc3)c2)cc1
inactive: dose: 3.13 mg/kg/injection, schedule: Q01DX009 (ip), vehicle: saline with Tween-80 100 % of control | dose: 3.13 mg/kg/injection, schedule: Q04DX003 (ip), vehicle: saline 101 % of control | dose: 6.25 mg/kg/injection, schedule: Q01DX009 (ip), vehicle: saline with Tween-80 100 % of control | dose: 6.25 mg/kg/injection, schedule: Q04DX003 (ip), vehicle: saline 98 % of control | [27] 97 % of control | dose: 12.5 mg/kg/injection, schedule: Q04DX003 (ip), vehicle: saline 104 % of control | [3] 95 % of control

COc1cccc(OC)c1OC(=O)Nc1c(Cl)cccc1Cl
inactive: [12] 96 % of control | [13] 92 % of control | [25] 105 % of control

Nc1ccc(S(=O)(=O)F)c(Cl)c1
inactive: [13] 97 % of control | [7] 95 % of control | [25] 100 % of control | [8] 101 % of control | [9] 95 % of control
